The results in this text go back to patent publication US5527555A, “Brazzein sweetener” (Wisconsin Alumni Research Foundation, priority 1994, dated 1996).

The nature of data set [1]: sweetness by tasting, compared with sucrose solution. Type of data set: in vivo.
The nature of data set [2]: Thermostability assay (incubation at 98° C., sweetness then tasted). Type of data set: physicochemical. On the procedure: A thermostability assay was done (2 hours at 98° C.) at a concentration of 0.5 mg/ml Brazzein at the following different pH levels: 2 (Glycine-HCL buffer); 4 (Acetate buffer); 6 (Phosphate buffer); and 8 (Tris-HCL buffer). All of the buffers were in concentration of 50 mM. After the incubations, the samples were cooled down to room temperature and the sweetness of the samples was tasted with a comparison to the original protein solution.

“Brazzein: sweet protein isolated from Pentadiplandra brazzeana Baillon, about 6,473 Daltons, amino acid sequence SEQ ID NO:4 (EDKCKKVYENYPVSKCQLANQCNYDCKLDKHARSGECFYDEKRNLQCICDYCEY)”: the “sweetness relative to sucrose” value in data set [1] (2% solution compared with a 2% sucrose solution) is given as “about 2,000 times”. Also, the temporal sweetness response result in data set [1] (taste, duration of sweetness) is recorded as “relatively long lasting sweetness response”. For the same substance, the thermostability result in data set [2] (2 hours at 98° C., 0.5 mg/ml, pH 2, 4, 6 and 8 (50 mM buffers), sweetness tasted against original protein solution) is reported as “excellent thermostability”. For the same substance, in data set [2] (two hours of incubation at 98° C.), the “sweetness after heat incubation” value was “still tasted very sweet”.
